Patent US11076595B2, “1-(n,n-disubstituted carbamoyl) 4-(substituted sulfonyl)triazolin-5-one derivative, 4-(n,n-disubstituted carbamoyl) 1-(substituted sulfonyl)triazolin-5-one derivative, and herbicide containing said derivative as active ingredient” (HOKKO CHEMICAL INDUSTRY CO., LTD., priority 2017, dated 2021)

Assays:
Assay type in all cases: in vivo
Echinochloa crus-galli [1] = experiment: Test Example 1: herbicidal effect test by soil treatment in paddy field; conditions: 120 g/10a, paddy soil treatment just after sowing, 14 days after treatment
From the text: (§1) A Wagner pot having an area of 1/10000 are was filled with paddy field soil and after adding water, a chemical fertilizer (N:P:K=17:17:17) was mixed, followed by puddling. Thereafter, 30 grains of each of Echinochloa crus-galli, broad-leaved weed (Lindernia pyxidaria and Monochoria vaginalis) and Scirpus juncoides seeds were sown to a depth of 0 to 1 cm. Immediately after the sowing, the pot was flooded, and the depth of water was kept at about 3 cm. The pot was subsequently managed in a glass greenhouse. Just after that, an emulsifiable concentrate prepared according to Formulation Example 5 by using the compound shown in Table 5 below was diluted with water, and a predetermined amount of the water-diluted formulation was added dropwise. The application rate of the active ingredient, by conversion, corresponded to 120 g per 10 are.
(§2) This test was performed with two replications per one formulation concentration plot, and 14 days after the formulation treatments, the weed suppression rate (%) was determined according to the following equation (Math. 1). Weed suppression rate (%)=(1−an average dry weight (g) of plants in treated plots/an average dry weight (g) of plants in untreated plots)×100 [Math. 1]

Lindernia pyxidaria [2] = experiment: as above; conditions: 120 g/10a, paddy soil treatment just after sowing, 14 days after treatment
From the text: as §1, §2

Monochoria vaginalis [3] = experiment: as above; conditions: 120 g/10a, paddy soil treatment just after sowing, 14 days after treatment
From the text: as §1, §2

Scirpus juncoides [4] = experiment: as above; conditions: 120 g/10a, paddy soil treatment just after sowing, 14 days after treatment
From the text: as §1, §2

Echinochloa crus-galli [5] = experiment: Test Example 2: herbicidal effect test by treatment during growing period in paddy field; conditions: treatment 7 days after sowing, 120 g/10a, evaluated 14 days after treatment
Protocol: as §2
as §1, with “greenhouse. Seven days” for “greenhouse. Just”, “after sowing,” for “after that,”, “Table 6” for “Table 5”, “are. The test was performed with two replications per one formulation concentration plot, and 14 days after the formulation treatments, the weed suppression rate (%) was determined according to the equation (Math. 1).” for “are.”

Lindernia pyxidaria [6] = experiment: as above; conditions: treatment 7 days after sowing, 120 g/10a, evaluated 14 days after treatment
Protocol: as §2
as §1, with “greenhouse. Seven days” for “greenhouse. Just”, “after sowing,” for “after that,”, “Table 6” for “Table 5”, “are. The test was performed with two replications per one formulation concentration plot, and 14 days after the formulation treatments, the weed suppression rate (%) was determined according to the equation (Math. 1).” for “are.”

Monochoria vaginalis [7] = experiment: as above; conditions: treatment 7 days after sowing, 120 g/10a, evaluated 14 days after treatment
Protocol: as §2
as §1, with “greenhouse. Seven days” for “greenhouse. Just”, “after sowing,” for “after that,”, “Table 6” for “Table 5”, “are. The test was performed with two replications per one formulation concentration plot, and 14 days after the formulation treatments, the weed suppression rate (%) was determined according to the equation (Math. 1).” for “are.”

Scirpus juncoides [8] = experiment: as above; conditions: treatment 7 days after sowing, 120 g/10a, evaluated 14 days after treatment
Protocol: as §2
as §1, with “greenhouse. Seven days” for “greenhouse. Just”, “after sowing,” for “after that,”, “Table 6” for “Table 5”, “are. The test was performed with two replications per one formulation concentration plot, and 14 days after the formulation treatments, the weed suppression rate (%) was determined according to the equation (Math. 1).” for “are.”

Amaranthus viridis = experiment: Test Example 4: herbicidal effect test by foliage treatment in upland field; conditions: upland field foliage treatment 7 days after sowing; 120 g/10a; evaluated 14 days after treatment
Protocol: as §2
(§3) A pot having a size of 36 cm^2 was filled with field soil (alluvial soil) and after uniformly mixing the soil of the surface layer of 1 cm with 20 grains of each weed seed of crabgrass, Echinochloa crus-galli, Chenopodium album and Amaranthus viridis, the surface layer was pressed lightly. Seven days after the sowing, an emulsifiable concentrate prepared according to Formulation Example 5 by using the compound shown in Table 8 below was diluted with water, and the water-diluted formulation was sprayed on the soil surface at a ratio of 100 liter per 10 are. The application rate of the active ingredient, by conversion, corresponded to 120 g per 10 are. Fourteen days after the formulation treatment, the herbicidal effect was evaluated by the same criteria as in Test Example 1.

Chenopodium album = experiment: as above; conditions: upland field foliage treatment 7 days after sowing; 120 g/10a; evaluated 14 days after treatment
Protocol: as §2, §3

Echinochloa crus-galli [9] = experiment: as above; conditions: upland field foliage treatment 7 days after sowing; 120 g/10a; evaluated 14 days after treatment
Protocol: as §2, §3

crabgrass = experiment: as above; conditions: upland field foliage treatment 7 days after sowing; 120 g/10a; evaluated 14 days after treatment
Protocol: as §2, §3

| Compound | weed suppression rate, Echinochloa crus-galli (Echinochloa crus-galli [1]) [%] | weed suppression rate, Lindemia pyxidaria (Lindernia pyxidaria [2]) [%] | weed suppression rate, Monochoria vaginalis (Monochoria vaginalis [3]) [%] | weed suppression rate, Scirpus juncoides (Scirpus juncoides [4]) [%] | weed suppression rate, Echinochloa crus-galli (Echinochloa crus-galli [5]) [%] | weed suppression rate, Lindemia pyxidaria (Lindernia pyxidaria [6]) [%] | weed suppression rate, Monochoria vaginalis (Monochoria vaginalis [7]) [%] | weed suppression rate, Scirpus juncoides (Scirpus juncoides [8]) [%] | herbicidal effect (weed suppression rate), Amaranthus viridis (Amaranthus viridis) [%] | herbicidal effect (weed suppression rate), Chenopodium album (Chenopodium album) [%] | herbicidal effect (weed suppression rate), Echinochloa crus-galli (Echinochloa crus-galli [9]) [%] | herbicidal effect (weed suppression rate), Crabgrass (crabgrass) [%] |
| --- | --- | --- | --- | --- | --- | --- | --- | --- | --- | --- | --- | --- |
| Cc1cc(N(C(=O)n2ncn(S(=O)(=O)C(C)C)c2=O)C(C)C)no1 [Compound 1-99] | 60 | 80 | 90 | 50 | 90 | 80 | 80 | 90 | 90 | 80 | 80 | 90 |
| CC(C)N(C(=O)n1ncn(S(=O)(=O)C2CCCCC2)c1=O)c1c(F)c(F)cc(F)c1F [Compound 1-311] | 100 | 100 | 100 | 100 | 100 | 80 | 100 | 90 | 0 | 60 | 100 | 100 |
| CC(C)N(C(=O)n1ncn(S(=O)(=O)C2CC2)c1=O)c1c(F)c(F)cc(F)c1F [Compound 1-206] | 100 | 100 | 90 | 100 | 100 | 80 | 90 | 100 | 80 | 60 | 100 | 100 |
| CC(C)N(C(=O)n1ncn(S(=O)(=O)C2CC2)c1=O)c1ccc(C(F)(F)F)cc1F [Compound 1-226] | 100 | 100 | 100 | 100 | 100 | 80 | 100 | 90 | 90 | 80 | 100 | 100 |
| CC(C)N(C(=O)n1ncn(S(=O)(=O)C2CC2)c1=O)c1cccc(F)c1 [Compound 1-170] | 90 | 100 | 90 | 90 | 100 | 90 | 90 | 90 | 90 | 80 | 80 | 90 |
| CC(C)N(C(=O)n1ncn(S(=O)(=O)C2CCCCC2)c1=O)c1ccc(F)c(F)c1F [Compound 1-309] | 100 | 100 | 100 | 100 | 100 | 80 | 100 | 100 | 0 | 80 | 100 | 100 |
| CC(C)N(C(=O)n1ncn(S(=O)(=O)C2CC2)c1=O)c1c(F)cc(F)cc1F [Compound 1-204] | 100 | 100 | 80 | 100 | 100 | 80 | 100 | 100 | 80 | 60 | 100 | 100 |
| CC(C)N(C(=O)n1ncn(S(=O)(=O)C2CCOC2)c1=O)c1ccc(F)cc1F (racemic) [Compound 1-1161] | 90 | 80 | 80 | 90 | 90 | 80 | 80 | 90 |  |  |  |  |
| CC(C)N(C(=O)n1ncn(S(=O)(=O)C2CC2)c1=O)c1ccc(Br)cc1Cl [Compound 1-218] | 100 | 100 | 80 | 100 | 100 | 100 | 80 | 100 |  |  |  |  |
| CC(C)N(C(=O)n1ncn(S(=O)(=O)N(C)C)c1=O)c1cccnc1F [Compound 1-1128] | 90 | 90 | 60 | 70 | 90 | 90 | 60 | 70 |  |  |  |  |
| CC(C)N(C(=O)n1ncn(S(=O)(=O)N(C)C)c1=O)c1ccccc1F [Compound 1-1093] | 90 | 80 | 80 | 90 | 90 | 80 | 80 | 90 |  |  |  |  |
| CC(C)N(C(=O)n1ncn(S(=O)(=O)C(C)C)c1=O)c1ccc(F)nc1 [Compound 1-91] | 100 | 90 | 90 | 90 | 100 | 90 | 90 | 90 |  |  |  |  |
